Test: toxicity evaluation by changes in body weight
Format: in vivo, mice
Conditions: intraperitoneal, 500 mg/kg for 5 days; FIG. 6
Protocol: To evaluate the toxicity of VPA and Nano^VPA, VPA and Nano^VPA were intraperitoneally administered at a dose of 500 mg/kg for 5 days, and changes in body weight of the mice were observed.

## CCCC(CCC)C(=O)O [VPA, valproic acid]
  changes in body weight: a decrease in body weight
